Results from patent US20190328833A1, “POLYMYXIN-ALGINATE OLIGOMER CONJUGATES” (AlgiPharma AS, priority 2016, published 2019).

Experiments:
[1] = tested on: human kidney (HK-2) cell line; experiment: In vitro cytotoxicity: MTT assay; type: cell-based; details: HK-2, 72 h, concentration of the antibiotic or the antibiotic within the conjugate, mean (n=18)
Experimental: An MTT assay was used to assess cell viability in a human kidney (HK-2) cell line (72 h incubation). HK-2 cells were seeded into sterile 96-well microtitre plates (1×10^5 cells/mL) in 0.1 mL/well of media (K-SFM) containing L-glutamine, EGF and BPE. They were allowed to adhere for 24 h. The medium was then removed and a range of concentrations of test compounds (0.2 μm filter-sterilized) dissolved in fresh culture media were added to the cells. After a further 67 h incubation, MTT, 3-(4,5-dimethylthiazol-2-yl)-2,5-diphenyltetrazolium bromide, (20 μL of a 5 mg/mL solution in PBS) was added to each well and the cells were incubated for a further 5 h. The medium was then removed and the precipitated formazan crystals solubilized by addition of optical grade DMSO (100 μL) over 30 min. Absorbance was measured at 540 nm using a microtitre plate reader. Cell viability was expressed as a percentage of the viability of untreated control cells. The IC50 values were expressed as mean (n=18).
The IC50 values summarised below represent the concentration of the antibiotic (polymyxin B, colistin sulphate or colistin methanesulphonate (CMS)) or the antibiotic within the conjugate required to inhibit HK2 cells growth by half. OligoG is included as a control.

V3 Klebsiella pneumoniae = experiment: MIC, broth microdilution, V3; type: cell-based; details: for MIC V3: n=3, median
Experimental: (§1) The strains used for susceptibility testing include both culture collection strains and clinical isolates (Table 1). To the extent indicated below, their known relevant genotypes and origin have been described by Khan et al. supra.
(§2) The MICs were determined using the broth microdilution method in accordance with standard guidelines (CLSI 2012). Test organisms were suspended in Mueller Hinton cation adjusted (MH) broth (100 μL, 1-5×10^4 CFU/mL) and incubated in 96-well microtitre plates in serial two-fold dilutions of the test compounds. The MIC was defined as the lowest concentration of test compound that produced no visible growth after 16-20 hours.

V7 Escherichia coli = experiment: MIC, broth microdilution, V7; type: cell-based; details: for MIC V7: n=3, median
Experimental: as §1, §2

[2] = tested on: V4 Acinetobacter baumanii MDR ACB; experiment: MIC, broth microdilution, V4; type: cell-based; details: n=3, median
Experimental: as §1, §2

V11 Escherichia coli = experiment: MIC, broth microdilution, V11; type: cell-based; details: Batch 6; n=3, median
Experimental: as §1, §2

[3] = tested on: Acinetobacter baumanii (V19); experiment: Two-compartment static dialysis bag PK/PD model, colony counts; type: cell-based; details: at MIC (0.25 μg/ml); after 4 h; Batch 6
Excerpt: Studies were undertaken to investigate the PK/PD profiles of the OligoG-colistin conjugates (Batch 6) as compared to non-conjugated colistin in vitro. This is particularly important in nanoscale drug delivery systems where the incorporation of conventional small molecule drugs into nano-sized structures is associated with PK/PD properties that are substantially altered from the original drug. The model system previously described in Azzopardi (supra) was employed.
The unmasking of OligoG-colistin conjugates was simulated using the Azzopardi two-compartment static dialysis bag model under infinite sink conditions (total volume, 20 ml; inner-compartment volume, 5 ml). Dialysis membrane (10,000 g/mol molecular weight cutoff [MWCO]) was pre-soaked for 15 to 30 min in distilled water (dH2O), secured with dialysis clips, and suspended from an injection port to separate the inner compartment (IC) from the outer compartment (OC) in a sterilized 25-ml beaker sealed with a sterile medical-grade polyurethane membrane (Tegaderm).
The model system was prepared under aseptic conditions in a class 2 laminar airflow cabinet and transferred to a shaking incubator set at 37° C. in ambient air and constant orbital agitation at 70 rpm for 48 h. […] Samples were collected from the OC at various time points and characterised by bacterial colony counts (CFU/ml) using Miles and Misra Method.

Pseudomonas aeruginosa = experiment: MIC quoted for the biofilm study; type: cell-based; details: FIG. 9 legend and Example 7; strain not stated
Experimental: as §2
These experiments investigated whether OligoG-colistin conjugates could inhibit biofilm development more effectively than unconjugated forms of colistin. First, stock solutions of the test compounds were prepared at 1 mg/mL in MH broth and used to prepare a range of antibiotic concentrations (2×MIC-MIC/8) using double dilutions in MH broth across wells of a Greiner glass-bottomed optical 96-well plate (90 μL per well). Sterility (100 μL of MH broth) and growth (90 μL of MH broth plus 10 μL of tested bacterial pathogen) controls were also prepared. Overnight bacterial cultures were grown in TS broth (TSB) and diluted in MH broth to achieve an OD625 of 0.5, then 10 μL was added to the wells. Plates were wrapped in parafilm and incubated for 24 h on a rocker (20 rpm) at 37° C. […] The plate was wrapped in parafilm and kept in the dark until it was analysed by confocal laser scanning microscopy (CLSM), n=2.

[4] = tested on: V2 Pseudomonas aeruginosa, V3 Klebsiella pneumoniae, V19 Acinetobacter baumannii, V7 Escherichia coli; experiment: Bacterial growth curves (absorbance at 600 nm, 48 h); type: cell-based
Experimental: Finally, bacterial growth curves, using the mean of the previously determined MIC values for OligoG-colistin conjugates (amide and ester linked) and colistin sulfate, were used to compare their pharmacokinetic profiles in vitro. For comparison, bacterial growth in the presence of i) OligoG, ii) PRONOVA (high molecular weight alginate) and iii) OligoG plus colistin, both at concentrations corresponding to the amounts present in the corresponding conjugates, was measured. Sterile 96-well microtitre plates were set up for MIC assay as previously described (range: MIC×16 to MIC/16, 0). Plates were then wrapped in parafilm and placed in a microtitre plate reader at 37° C., 5% CO2 and absorbance at 600 nm was measured hourly for 48 h. Experiments were conducted in triplicate and results were presented as mean values (n=3).

V5 Escherichia coli = experiment: MIC, broth microdilution, V5; type: cell-based; details: n=3, median
Experimental: as §1, §2

[5] = tested on: V2 Pseudomonas aeruginosa (301); experiment: MIC, broth microdilution, V2; type: cell-based; details: for MIC V2: n=3, median
Experimental: as §1, §2

[6] = tested on: TNFα release from HK2 cells; experiment: TNFα release from HK2 cells (ELISA); type: cell-based, human; details: 72 h incubation, FIG. 8
Experimental: As a model inflammatory cytokine involved in polymyxin cyto toxicity, TNFα release from HK2 cells in response to polymyxins and OligoG-polymyxin conjugates was measured by ELISA. HK-2 cells were seeded into sterile 96-well microtitre plates (1×10^5 cells/mL) in 0.1 mL/well of media (K-SFM) containing L-glutamine, EGF and BPE. They were allowed to adhere for 24 h. The medium was then removed and a range of concentrations of test compounds (0.2 μm filter-sterilized) dissolved in fresh culture media were added to the cells. After 72 h incubation, microtiter plates were centrifuged (1500 rpm, 3 min) and the supernatant was transferred into a new 96-well microtitre plate.
TNFα ELISA Assay was carried out according the manufacturer's instructions (Thermo Scientific, ESS0001). Briefly, 100 μL of coating antibody (1:100 dilution in PBS) was added to each well of 96-well microtitre plate. […] Absorbance was measured at 450 nm minus 550 nm.
Standard curves were generated by plotting the average absorbance obtained for each standard concentration on the vertical (Y) axis versus the corresponding human TNFα concentration (pg/mL) on the horizontal (X) axis. Human TNFα amount in each sample was determined by interpolating from the absorbance value (Y-axis) to human TNFα concentration (X-axis) using the standard curve. […]

[7] = tested on: V1 Pseudomonas aeruginosa R22; experiment: MIC, broth microdilution, V1; type: cell-based; details: n=3, median
Experimental: as §1, §2

[8] = tested on: V6 Klebsiella pneumoniae IR25; experiment: MIC, broth microdilution, V6; type: cell-based; details: n=3, median
Experimental: as §1, §2

[9] = tested on: V19 Acinetobacter baumannii; experiment: MIC, broth microdilution, V19; type: cell-based; details: for MIC V19: n=3, median
Experimental: as §1, §2

[10] = tested on: Pseudomonas aeruginosa biofilms; experiment: Disruption of biofilm development (CLSM, live/dead stain); type: cell-based; details: 2×MIC-MIC/8; 24 h
Experimental: These experiments investigated whether OligoG-colistin conjugates could inhibit biofilm development more effectively than unconjugated forms of colistin. First, stock solutions of the test compounds were prepared at 1 mg/mL in MH broth and used to prepare a range of antibiotic concentrations (2×MIC-MIC/8) using double dilutions in MH broth across wells of a Greiner glass-bottomed optical 96-well plate (90 μL per well). Sterility (100 μL of MH broth) and growth (90 μL of MH broth plus 10 μL of tested bacterial pathogen) controls were also prepared. Overnight bacterial cultures were grown in TS broth (TSB) and diluted in MH broth to achieve an OD625 of 0.5, then 10 μL was added to the wells. Plates were wrapped in parafilm and incubated for 24 h on a rocker (20 rpm) at 37° C. After a 24 h incubation, the supernatant was carefully removed from all wells and 3 μL of live/dead stain (Live/dead Baclight Bacterial Viability kit; prepared by mixing 1 μL of component A and B in 1 mL of PBS) was added. The plate was wrapped in foil and kept in the dark for 15 min. Lastly, 47 μL of PBS was added to all tested wells. The plate was wrapped in parafilm and kept in the dark until it was analysed by confocal laser scanning microscopy (CLSM), n=2.

[11] = tested on: NH57388A Pseudomonas aeruginosa; experiment: MIC, broth microdilution, NH57388A; type: cell-based; details: Batch 6; n=3, median
Experimental: as §1, §2

Substance	IC50 ([1]; Batch 4)	IC50 ([1]; Batch 5)	MIC V3 (V3 Klebsiella pneumoniae; Batch 2)	MIC V3 (V3 Klebsiella pneumoniae; Batch 4)	MIC V3 (V3 Klebsiella pneumoniae; Batch 6)	MIC V7 (V7 Escherichia coli; Batch 4)	MIC V7 (V7 Escherichia coli; Batch 6)	MIC V4 ([2]; Batch 4)	MIC V4 ([2]; Batch 6)	MIC V11 (V11 Escherichia coli)	MIC V5 (V5 Escherichia coli; Batch 2)	MIC V5 (V5 Escherichia coli; Batch 4)	MIC V5 (V5 Escherichia coli; Batch 6)	MIC V2 ([5]; Batch 2)	MIC V2 ([5]; Batch 4)	MIC V2 ([5]; Batch 6)	TNFα release, adjusted for cell viability [6]	MIC V1 ([7]; Batch 4)	MIC V1 ([7]; Batch 6)	MIC V6 ([8]; Batch 4)	other results
colistin sulfate	25000 ng/mL	10980 ng/mL	<125 ng/mL	<63 ng/mL	125 ng/mL	125 ng/mL	250 ng/mL	500 ng/mL	500 ng/mL	31 ng/mL	0.02 ng/mL	<16 ng/mL	<8 ng/mL	250 ng/mL	250 ng/mL	500 ng/mL	greater TNFα release	250 ng/mL	500 ng/mL	62.5 ng/mL	median MIC (V3 Klebsiella pneumoniae; FIG. 2 legend, V3, MIC used for growth curves): 8 ng/mL; median MIC (V7 Escherichia coli; FIG. 4 legend, V7, MIC used for growth curves): 63 ng/mL; reduction of viable bacterial counts [3]: ~2 fold; median MIC (Pseudomonas aeruginosa): 63 ng/mL; bacterial growth / regrowth in growth curves ([4]; FIGS. 1-5, 48 h): more rapid bacterial regrowth; inhibition of bacterial re-growth ([4]; at the median of previously determined MIC values across all batches): shortest inhibition of bacterial re-growth; concentration inhibiting bacterial re-growth for up to 48 h ([4]; up to 48 h): > 8 ×MIC; median MIC ([5]; FIG. 1 legend, V2, MIC used for growth curves): 63 ng/mL; MIC V6 ([8]; Batch 6): 63 ng/mL; MIC V19 ([9]; Batch 2): <62.5 ng/mL; MIC V19 ([9]; Batch 4): <16 ng/mL; MIC V19 ([9]; Batch 6): 250 ng/mL; median MIC ([9]; FIG. 3 legend, V19, MIC used for growth curves): 2 ng/mL; effect on biofilms [10]: only a small effect on P. aeruginosa biofilms; MIC NH57-388A [11]: 250 ng/mL
colistin methanesulphonate [CMS]	–	13970 ng/mL	–	–	–	–	–	–	–	–	–	–	–	–	–	–	–	–	–	–	–
polymyxin B	12000 ng/mL	12630 ng/mL	<125 ng/mL	125 ng/mL	125 ng/mL	63 ng/mL	500 ng/mL	125 ng/mL	125 ng/mL	63 ng/mL	<0.008 ng/mL	<16 ng/mL	<4 ng/mL	250 ng/mL	500 ng/mL	500 ng/mL	greater TNFα release	250 ng/mL	250 ng/mL	125 ng/mL	MIC V6 ([8]; Batch 6): 125 ng/mL; MIC V19 ([9]; Batch 2): <62.5 ng/mL; MIC V19 ([9]; Batch 4): 31 ng/mL; MIC V19 ([9]; Batch 6): 125 ng/mL; MIC NH57-388A [11]: 250 ng/mL
